Experimental data published in ChEMBL document CHEMBL1201862, “PubChem BioAssay data set” (2004).
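Cells were grown in 96-well plates and exposed to each compound for 48 hours at five concentrations; endpoints were interpolated linearly between bracketing concentrations, or set to the highest concentration if not reached. Abbreviation: GI50, concentration required for 50% inhibition of growth.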 Active and inactive are the calls of the source. Rule as the data show it: active = GI50 up to about 1.1 µM and inactive = higher.

Experiments:
Assay in all cases: NCI tumour cell line growth inhibition, 48 h
786-0 = tested on: 786-0
SNB-75 = tested on: SNB-75
LOX IMVI = tested on: LOX IMVI
DLD-1 = tested on: DLD-1
UACC-62 = tested on: UACC-62
SNB-78 = tested on: SNB-78
SK-MEL-5 = tested on: SK-MEL-5
SK-MEL-2 = tested on: SK-MEL-2
HOP-62 = tested on: HOP-62
CCRF-CEM = tested on: CCRF-CEM
CAKI-1 = tested on: CAKI-1
M14 = tested on: M14
HOP-18 = tested on: HOP-18
OVCAR-5 = tested on: OVCAR-5
SF-268 = tested on: SF-268
OVCAR-3 = tested on: OVCAR-3
OVCAR-8 = tested on: OVCAR-8
Malme-3M = tested on: Malme-3M
TK-10 = tested on: TK-10
NCI-H460 = tested on: NCI-H460
UACC-257 = tested on: UACC-257
OVCAR-4 = tested on: OVCAR-4
HL-60 = tested on: HL-60
MOLT-4 = tested on: MOLT-4
NCI-H226 = tested on: NCI-H226
IGROV-1 = tested on: IGROV-1
XF498 = tested on: XF498
EKVX = tested on: EKVX
M19-MEL = tested on: M19-MEL
SF-295 = tested on: SF-295
NCI/ADR-RES = tested on: NCI/ADR-RES
RPMI-8226 = tested on: RPMI-8226
SN12C = tested on: SN12C
SW-620 = tested on: SW-620
ACHN = tested on: ACHN
RXF 393 = tested on: RXF 393
DMS-273 = tested on: DMS-273
MCF7 = tested on: MCF7
HCT-116 = tested on: HCT-116
SK-MEL-28 = tested on: SK-MEL-28
KM12 = tested on: KM12
HCT-15 = tested on: HCT-15
NCI-H23 = tested on: NCI-H23
U-251 = tested on: U-251
HCC 2998 = tested on: HCC 2998
NCI-H522 = tested on: NCI-H522
SF-539 = tested on: SF-539
DMS-114 = tested on: DMS-114
KM-20L2 = tested on: KM-20L2
HT-29 = tested on: HT-29
LXFL 529 = tested on: LXFL 529
RXF 631 = tested on: RXF 631
SNB-19 = tested on: SNB-19
SK-OV-3 = tested on: SK-OV-3
COLO 205 = tested on: COLO 205
K562 = tested on: K562
UO-31 = tested on: UO-31
HOP-92 = tested on: HOP-92
A498 = tested on: A498
A549 = tested on: A549

How did the GI50 (786-0) turn out when `COc1ccc2c(c1)CCc1c(CO)c(COC(=O)NC(C)C)n(C)c1-2` was run?
The GI50 was 4.41 µM (inactive).

What about the GI50 (SNB-75) of the same compound?
Its GI50 is 4.82 µM (inactive).

What about the GI50 (LOX IMVI) of the same compound?
Its GI50 is 4.91 µM (inactive).

And the GI50 (DLD-1)?
The GI50 was 4.72 µM (inactive).

And the GI50 (UACC-62)?
Its GI50 is 5.6 µM (inactive).

And the GI50 (SNB-78)?
The GI50 was 4.38 µM (inactive).

And the GI50 (SK-MEL-5)?
Its GI50 is 4.51 µM (inactive).

What about the GI50 (SK-MEL-2) of the same compound?
Its GI50 is 11.2 µM (inactive).

And the GI50 (HOP-62)?
Its GI50 is 24 µM (inactive).

What about the GI50 (CCRF-CEM) of the same compound?
The GI50 was 2.64 µM (inactive).

And the GI50 (CAKI-1)?
The GI50 was 5.81 µM (inactive).

What about the GI50 (M14) of the same compound?
Its GI50 is 6.11 µM (inactive).

And the GI50 (HOP-18)?
The GI50 was 1.55 µM (inactive).

And the GI50 (OVCAR-5)?
Its GI50 is 24.2 µM (inactive).

And the GI50 (SF-268)?
The GI50 was 6.49 µM (inactive).

What about the GI50 (OVCAR-3) of the same compound?
The GI50 was 8.51 µM (inactive).

What about the GI50 (OVCAR-8) of the same compound?
Its GI50 is 3.33 µM (inactive).

What about the GI50 (Malme-3M) of the same compound?
Its GI50 is 4.15 µM (inactive).

What about the GI50 (TK-10) of the same compound?
Its GI50 is 14.6 µM (inactive).

And the GI50 (NCI-H460)?
The GI50 was 5.56 µM (inactive).

And the GI50 (UACC-257)?
The GI50 was 4.42 µM (inactive).

What about the GI50 (OVCAR-4) of the same compound?
The GI50 was 4.34 µM (inactive).

What about the GI50 (HL-60) of the same compound?
Its GI50 is 1.59 µM (inactive).

What about the GI50 (MOLT-4) of the same compound?
The GI50 was 2.68 µM (inactive).

What about the GI50 (NCI-H226) of the same compound?
The GI50 was 2.68 µM (inactive).

And the GI50 (IGROV-1)?
The GI50 was 5.68 µM (inactive).

And the GI50 (XF498)?
Its GI50 is 7.83 µM (inactive).

And the GI50 (EKVX)?
Its GI50 is 22.9 µM (inactive).

And the GI50 (M19-MEL)?
Its GI50 is 3.7 µM (inactive).

And the GI50 (SF-295)?
The GI50 was 9.35 µM (inactive).

What about the GI50 (NCI/ADR-RES) of the same compound?
The GI50 was 16.1 µM (inactive).

And the GI50 (RPMI-8226)?
Its GI50 is 2.24 µM (inactive).

What about the GI50 (SN12C) of the same compound?
Its GI50 is 8.93 µM (inactive).

What about the GI50 (SW-620) of the same compound?
Its GI50 is 3.74 µM (inactive).

What about the GI50 (ACHN) of the same compound?
The GI50 was 3.83 µM (inactive).

And the GI50 (RXF 393)?
Its GI50 is 7.55 µM (inactive).

What about the GI50 (DMS-273) of the same compound?
The GI50 was 5.48 µM (inactive).

What about the GI50 (MCF7) of the same compound?
Its GI50 is 9.79 µM (inactive).

And the GI50 (HCT-116)?
The GI50 was 2.91 µM (inactive).

What about the GI50 (SK-MEL-28) of the same compound?
The GI50 was 5.02 µM (inactive).

What about the GI50 (KM12) of the same compound?
Its GI50 is 6.61 µM (inactive).

What about the GI50 (HCT-15) of the same compound?
The GI50 was 13 µM.

And the GI50 (NCI-H23)?
Its GI50 is 2.97 µM (inactive).

What about the GI50 (U-251) of the same compound?
Its GI50 is 5.41 µM (inactive).

What about the GI50 (HCC 2998) of the same compound?
Its GI50 is 8.85 µM (inactive).

And the GI50 (NCI-H522)?
The GI50 was 3.44 µM (inactive).

And the GI50 (SF-539)?
Its GI50 is 12.9 µM (inactive).

What about the GI50 (DMS-114) of the same compound?
The GI50 was 2.59 µM (inactive).

And the GI50 (KM-20L2)?
Its GI50 is 6.59 µM (inactive).

And the GI50 (HT-29)?
The GI50 was 3.14 µM (inactive).

And the GI50 (LXFL 529)?
Its GI50 is 3.21 µM (inactive).

What about the GI50 (RXF 631) of the same compound?
The GI50 was 13 µM (inactive).

And the GI50 (SNB-19)?
Its GI50 is 6.87 µM (inactive).

What about the GI50 (SK-OV-3) of the same compound?
Its GI50 is 18.3 µM (inactive).

And the GI50 (COLO 205)?
The GI50 was 2.09 µM (inactive).

What about the GI50 (K562) of the same compound?
The GI50 was 2.41 µM (inactive).

And the GI50 (UO-31)?
Its GI50 is 4.97 µM (inactive).

What about the GI50 (HOP-92) of the same compound?
The GI50 was 4.01 µM (inactive).

What about the GI50 (A498) of the same compound?
Its GI50 is 9.29 µM (inactive).

And the GI50 (A549)?
The GI50 was 6.53 µM (inactive).
